According to ChEMBL document CHEMBL3045174, “Synthesis and Insecticidal Activity of Alkylated N-Benzoyl-N-Phenylureas and Their Toxicity to Aquatic Invertebrate” (J Pestic Sci, 1998):

Columns and labels:
Daphnia magna = assay: Toxicity in Daphnia magna assessed as […] concentration measured up to 48 hr; assay type: organism-based
Plutella xylostella = assay: Insecticidal activity against second or third-instar Plutella xylostella (diamondback moth) in compound treated cabbage leaves at 26 degC; assay type: functional
[1] = Lipophilicity, log P of the compound by HPLC method; assay type: physicochemical

Row | SMILES | EC50 (Daphnia magna) [ppb] | LC90 (Plutella xylostella) [ppm] | logP [1]
1 | CN(C(=O)NC(=O)c1c(F)cccc1F)c1ccc(-c2ccc(Br)cc2)cc1 | 150 | 0.04 | –
2 | CN(C(=O)NC(=O)c1c(F)cccc1F)c1cc(Cl)c(F)c(Cl)c1F | > 500 | 0.15 | –
3 | CN(C(=O)NC(=O)c1c(F)cccc1F)c1ccc(Cl)cc1 | > 500 | 12.5 | –
4 | CN(C(=O)NC(=O)c1c(F)cccc1F)c1ccc(Oc2ccc(C(F)(F)F)cc2Cl)c(F)c1 | 500 | 0.04 | –
5 | O=C(NC(=O)N(CC(F)(F)F)c1cc(Cl)c(Oc2ncc(C(F)(F)F)cc2Cl)c(Cl)c1)c1c(F)cccc1F | – | 1.25 | –
6 | O=C(NC(=O)N(Cc1ccccc1)c1cc(Cl)c(Oc2ncc(C(F)(F)F)cc2Cl)c(Cl)c1)c1c(F)cccc1F | – | 5 | –
7 | CN(C(=O)NC(=O)c1c(F)cccc1F)c1ccc(Oc2ccc(C(F)(F)F)cc2Cl)c(Cl)c1 | 100 | 0.04 | –
8 | CN(C(=O)c1c(F)cccc1F)C(=O)N(C)c1cc(Cl)c(Oc2ncc(C(F)(F)F)cc2Cl)c(Cl)c1 | > 500 | 0.3 | 4.76
9 | CCN(C(=O)NC(=O)c1c(F)cccc1F)c1cc(Cl)c(Oc2ncc(C(F)(F)F)cc2Cl)c(Cl)c1 | – | 0.3 | –
10 | CC(C)N(C(=O)NC(=O)c1c(F)cccc1F)c1cc(Cl)c(Oc2ncc(C(F)(F)F)cc2Cl)c(Cl)c1 | – | 0.8 | –
11 | CN(C(=O)NC(=O)c1c(F)cccc1F)c1cc(Cl)c(Oc2ncc(C(F)(F)F)cc2Cl)c(Cl)c1 | 450 | 0.08 | 4.21
12 | CN(C(=O)Nc1cc(Cl)c(Oc2ncc(C(F)(F)F)cc2Cl)c(Cl)c1)C(=O)c1c(F)cccc1F | > 500 | 10 | 7.26
13 | O=C(NC(=O)c1c(F)cccc1F)Nc1cc(Cl)c(Oc2ncc(C(F)(F)F)cc2Cl)c(Cl)c1 [CHLORFLUAZURON] | – | 0.04 | 5.71
14 | O=C(NC(=O)c1c(F)cccc1F)Nc1ccc(Cl)cc1 [DIFLUBENZURON] | – | 12.5 | –
15 | O=C(NC(=O)c1c(F)cccc1F)Nc1ccc(Oc2ccc(C(F)(F)F)cc2Cl)cc1F [FLUFENOXURON] | – | 0.04 | –
16 | O=C(NC(=O)c1c(F)cccc1F)Nc1cc(Cl)c(OC(F)(F)C(F)F)c(Cl)c1 [HEXAFLUMURON] | – | 0.04 | –
17 | O=C(NC(=O)c1c(F)cccc1F)Nc1cc(Cl)c(F)c(Cl)c1F [TEFLUBENZURON] | – | 0.02 | –
